From patent US7452695B2, “Methods for increasing polypeptide production” (Immunex Corporation, priority 2002, dated 2008) come the findings set out here.

For assay [1], the system named is CHO cell production line genetically engineered to express TNFR:Fc (cell line #5). Nature of the assay: Induction of TNFR:Fc expression, shaker flasks, 5 days at 31° C. (Example 1). The format is cell-based, Chinese hamster. The method, then: CHO cells were grown in spinner flasks at 37° C. using serum-free growth medium containing methotrexate. […] The cells, at initial cell densities of 2×10^6 cells/ml in 20 ml, were placed in 125 ml plastic Erlenmeyer flasks with plug seal caps and placed on shaker platforms in incubators set to the appropriate temperatures. Cell viability and number were monitored by haemocytometer counting using trypan blue dye. Recombinant polypeptide titers were assessed by ELISA-based assays. […] A flask containing no inducing compound was also included. The shaker flasks were incubated in this induction phase for 5 days at 31° C. in incubators without carbon dioxide control.

The test system of the next assay is cell line #9. Nature of the assay: Induction effects of xanthine derivatives in cell line #9, shake flasks, 6 days at 31° C. (Example 5). The format is cell-based, Chinese hamster. As to conditions: for protein titer compared with the no inducer control culture: concentrations of Table 3 (0.1-1 mM xanthines; 0.5 mM butyrate). The method, then: To dissolve 3-isobutyl-1-methylxanthine (IBX), it was solubilized in water heated to almost the boiling point, and quickly added to the flasks before it precipitated. […] The induction phase of the cell culture was carried out for 6 days at 31° C., and samples were removed for analysis at 3 day and 6 day timepoints.

The subject of assay [2] is CHO cells stably transformed with nucleic acids encoding an antibody against a murine IL-4 receptor.
The subject of assay [3] is CHO cells stably transformed with nucleic acids encoding RANK:Fc. As to the kind of experiment: Production of RANK:Fc with HMBA, caffeine and/or butyric acid, shaker flask, 5 days at 31° C. (Example 8). The class given is cell-based, Chinese hamster. The method, then: Nucleic acids encoding RANK:Fc inserted into a suitable vector (as described in International Application WO 01/36637) were introduced into CHO cells. […] Cells were grown for a total of 5 days in shaker flasks. Thereafter, all medium was harvested. The number of cells present in the culture was determined by staining with trypan blue and counting the cells in a hemocytometer. […] An average number of cells in the culture was calculated by averaging the starting and ending cell numbers. Specific productivity was determined from the total number of micrograms of RANK:Fc produced, an average cell number (calculated as described above), and the number of days of growth. Nucleic acids encoding RANK:Fc inserted into a suitable vector (as described in International Application WO 01/36637) were introduced into CHO cells. […] Cells were grown for a total of 5 days in a shaker flask. Thereafter, all medium was harvested. The number of cells present in the culture, the titer of RANK:Fc per milliliter of harvested medium, and specific productivity were determined as described above in Example 7.

Assay [4] has the same test system. Nature of the assay: Production of RANK:Fc with varying amounts of HMBA, shaker flasks, 5 days at 31° C. (Example 7). The format is cell-based, Chinese hamster. How it is done:
Nucleic acids encoding RANK:Fc inserted into a suitable vector (as described in International Application WO 01/36637) were introduced into CHO cells. […] Cells were grown for a total of 5 days in shaker flasks. Thereafter, all medium was harvested. The number of cells present in the culture was determined by staining with trypan blue and counting the cells in a hemocytometer. […] An average number of cells in the culture was calculated by averaging the starting and ending cell numbers. Specific productivity was determined from the total number of micrograms of RANK:Fc produced, an average cell number (calculated as described above), and the number of days of growth.

Assay [5] concerns CHO cells stably transformed with nucleic acids encoding a type II IL-1 receptor. As to the kind of experiment: Production of type II IL-1 receptor with HMBA in a bioreactor (Example 9). Particulars: 2 mM, added at shift to 31° C. after 2 days at 37° C., 12 more days. The class given is cell-based, Chinese hamster. The method, then:
About 500 thousand cells from a stably transformed line were inoculated into a one liter of serum-free medium in a bioreactor. Cells were grown for two days at 37° C. Thereafter, cells were shifted to 31° C., either without HMBA or in the presence of 2 mM HMBA, and grown for 12 more days. Thereafter, all medium was harvested. […] Data from this experiment are shown in Table 6 as a percentage of the average of the protein titers obtained from the two samples without HMBA rounded to the nearest whole number.

“And” between values parts separate entries of the source, which are not always exact repeats. Equal values may be shown once. Read-outs that look alike come from different tables or passages of the source.

Regarding `CCCC(=O)[O-].[Na+]` [butyrate, sodium butyrate], in assay [1] (0.2 mM), the “rate (in μg protein/10^6 cells/day) relative to control cultures” value was “about 1.07 times the rate of control cultures” and the “total protein (in μg/ml) relative to control culture” value is reported as “about 1.11 times the total protein produc”. For the same compound, in the assay on cell line #9 (0.5 mM), the “Titer (μg/ml) Day 3” value turned out to be 100 µg/mL and the “Titer (μg/ml) Day 6” value was found to be 220 µg/mL. Moreover, in the assay with cell line #9, the “protein titer compared with the no inducer control culture” value was “does not induce increased protein titer over that seen in a culture with no inducer”. In assay [2] (0.5 mM), the “production of the antibody compared with no inducer” value is on record as “enhanced production of the antibody”.

As to `CC(C)Cn1c(=O)n(C)c(=O)c2[nH]cnc21` [IBX, 3-isobutyl-1-methylxanthine], in the assay on cell line #9 (0.5 mM), the “Titer (μg/ml) Day 3” value was 150 µg/mL, the “Titer (μg/ml) Day 6” value was 420 µg/mL and the “production compared with caffeine” value is “even better than caffeine”.

In the case of `Cn1c(=O)c2c(ncn2C)n(C)c1=O` [caffeine, 1,3,7-trimethylxanthine], in assay [1] (0.5 mM), the “rate of production compared with 0.2 mM butyrate culture” value is recorded as “slightly higher rates of production”. In addition, the “rate of productivity per cell compared with no inducing agent” value in assay [1] (2 mM) is on record as “higher”. Also, in assay [3] (1 mM), the “Specific productivity (μg/10^6 cells/day)” value was determined as 23.6 μg/10^6 cells/day and the “Titer of RANK: Fc” value amounted to 362 µg/mL.

Regarding `Cn1c(=O)c2[nH]cnc2n(C)c1=O` [aminophylline, theophylline compound with 1,2-ethylenediamine (2:1) dihydrate], the “Titer (μg/ml) Day 3” value in the assay with cell line #9 (0.1 mM) was 110 µg/mL; in the assay with cell line #9 (0.5 mM), 120 µg/mL; in the assay on cell line #9 (1 mM), 100 µg/mL. The “Titer (μg/ml) Day 6” value with cell line #9 (0.1 mM) was determined as 260 µg/mL; in the assay with cell line #9 (0.5 mM), 250 µg/mL; in the assay on cell line #9 (1 mM), 200 µg/mL. The “protein titer compared with the no inducer control culture” value with cell line #9 is given as “did not induce protein titers above that seen in the no inducer control culture”.

For the compound `CC(=O)NCCCCCCNC(C)=O` [HMBA, hexamethylene bisacetamide], the “Specific productivity (μg/10^6 cells/day)” value is 19.1 μg/10^6 cells/day in assay [4] (0.1 mM), 19.5 μg/10^6 cells/day in assay [4] (0.5 mM), 23.9 μg/10^6 cells/day in assay [4] (2.0 mM) and 22.8 μg/10^6 cells/day in assay [3] (2 mM). For the same compound, the “Titer of RANK: Fc” value was 243 µg/mL in assay [4] (0.1 mM), 347 µg/mL in assay [4] (0.5 mM), 444 µg/mL in assay [4] (2.0 mM) and 410 µg/mL in assay [3] (2 mM). For the same compound, the “Relative Titer of type II IL-1 Receptor (percent of average of samples without HMBA)” value in assay [5] was 120% and 125%. For the same compound, in assay [2] (2 mM), the “production of the antibody compared with no inducer” value is listed as “enhanced production of the antibody”. Moreover, the “extent of enhancement of antibody production compared with sodium butyrate (0.5 mM)” value in assay [2] (2 mM, 31° C.) is “to a greater extent than did sodium butyrate”.

On to `CCCC(=O)O` [Butyric acid, butyric acid], for which, in assay [3] (0.5 mM), the “Specific productivity (μg/10^6 cells/day)” value turned out to be 31.6 μg/10^6 cells/day and the “Titer of RANK: Fc” value stood at 476 µg/mL.

On to `Cn1cnc2c1c(=O)[nH]c(=O)n2C` [theobromine, 3,7-dimethylxanthine], for which the entries for the “Titer (μg/ml) Day 3” value in the assay with cell line #9 (0.1 mM), in the assay with cell line #9 (0.5 mM) and in the assay on cell line #9 (1 mM) were 90 µg/mL, 100 µg/mL and 100 µg/mL, respectively. The results for the “Titer (μg/ml) Day 6” value with cell line #9 (0.1 mM), in the assay with cell line #9 (0.5 mM) and in the assay on cell line #9 (1 mM) were 270 µg/mL, 260 µg/mL and 260 µg/mL, respectively. Moreover, the “protein titer compared with the no inducer control culture” value in the assay on cell line #9 is recorded as “did not induce protein titers above that seen in the no inducer control culture”.
